Measurements: patent US20240239775A1, “FXR REGULATOR, PREPARATION METHOD THEREFOR, PHARMACEUTICAL COMPOSITION THEREOF AND USE THEREOF” (QINGDAO RUIJI MEDICAL TECHNOLOGY CO., LTD., priority 2021, published 2024)

Columns and labels:
[1] = biological target: T1, FXR (Homo sapiens, UniProt Q96RI1); assay: FXR antagonist screening by TR-FRET (LanthaScreen TR-FRET FXR co-activation assay kit); assay type: biochemical; conditions: Table 1.1, FXR antagonistic activity; TR-FRET with CDCA; geometric means of at least two independent runs
T1 construct: 5 μL of 20 nM FXR-LBD Complete Coregulator buffer G; purchased ThermoFisher PV4833
T1 sequence (Q96RI1 262-486 limits assumed): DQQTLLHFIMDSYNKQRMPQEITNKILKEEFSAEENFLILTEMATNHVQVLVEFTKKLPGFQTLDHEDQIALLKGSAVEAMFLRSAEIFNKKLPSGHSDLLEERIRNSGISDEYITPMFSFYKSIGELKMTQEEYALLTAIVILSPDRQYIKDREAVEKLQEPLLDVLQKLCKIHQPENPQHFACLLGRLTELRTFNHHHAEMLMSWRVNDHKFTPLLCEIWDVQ
In short: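 FXR-LBD (20 nM working solution) mixed with compound, CDCA (200 μM working solution) as agonist, Fluorescein-SRC2-2 and Tb-anti-GST antibody in Coregulator buffer G; 10 h at room temperature. Coactivator recruitment read by TR-FRET, triplicate wells.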

Structure (SMILES)	melting point	IC50 [1] [µM]
Cc1c(C(=O)O)oc2ccc(S(=O)(=O)N(CCc3ccccc3)c3ccccc3N3CCN(Cc4ccccc4)CC3)cc12 [Example F27-S95]	161 to 162 °C	10 to 50
Cc1c(C(=O)O)oc2ccc(S(=O)(=O)N(CCc3ccccc3)Cc3c(Cl)cccc3Cl)cc12 [Example F27-S49, 3-methyl-5-(N-(2,6-dichlorobenzyl)-N-phenethylsulfamoyl)benzofuran-2-carboxylic acid]	176 to 177 °C	0.1 to 10
Cc1c(C(=O)O)oc2ccc(S(=O)(=O)N(CCc3ccccc3)Cc3ccc(SC(F)(F)F)cc3)cc12 [Example F27-S35, 3-methyl-5-(N-(4-(trifluoromethylthio)benzyl)-N-phenethylsulfamoyl)benzofuran-2-carboxylic acid]	165 to 166 °C	10 to 50
Cc1c(C(=O)O)oc2ccc(S(=O)(=O)N(CCc3ccccc3)Cc3ccc(-c4ccccc4C#N)cc3)cc12 [Example F27-S83]	197 to 198 °C	10 to 50
Cc1c(C(=O)O)oc2ccc(S(=O)(=O)N(CCc3ccccc3)Cc3cccc([N+](=O)[O-])c3)cc12 [Example F27-S25, 3-methyl-5-(N-(3-nitrobenzyl)-N-phenethylsulfamoyl)benzofuran-2-carboxylic acid]	> 380 °C (dec.)	10 to 50
Cc1c(C(=O)O)oc2ccc(S(=O)(=O)N(CCc3ccccc3)Cc3ccc(Br)cc3C(F)(F)F)cc12 [Example F27-S59, 3-methyl-5-(N-(2-(trifluoromethyl)-4-bromobenzyl)-N-phenethylsulfamoyl)benzofuran-2-carboxylic acid]	150 to 151 °C	50 to 100
Cc1c(C(=O)O)oc2ccc(S(=O)(=O)N(CCc3ccccc3)c3ccc(N4CCN(C(=O)N(C)C)CC4)cc3)cc12 [Example F27-S71, 3-methyl-5-(N-(4-(4-(dimethylcarbamoyl)piperazin-1-yl)phenyl)-N-phenethylsulfamoyl)benzofuran-2-carboxylic acid]	192 to 193 °C	50 to 100
Cc1c(C(=O)O)oc2ccc(S(=O)(=O)N(CCc3ccccc3)Cc3ccc(C(F)(F)F)cc3F)cc12 [Example F27-S55, 3-methyl-5-(N-(2-fluoro-4-(trifluoromethyl)benzyl)-N-phenethylsulfamoyl)benzofuran-2-carboxylic acid]	174 to 175 °C	50 to 100
Cc1c(C(=O)O)oc2ccc(S(=O)(=O)N(CCc3ccccc3)c3ccccc3N3CCN(C(=O)CC(C)(C)C)CC3)cc12 [Example F27-S94]	191 to 192 °C	0.1 to 10
Cc1c(C(=O)O)oc2ccc(S(=O)(=O)N(CCc3ccccc3)Cc3cccc(-c4ccccc4)c3)cc12 [Example F27-S26, 3-methyl-5-(N-([1,1′-biphenyl]-3-ylmethyl)-N-phenethylsulfamoyl)benzofuran-2-carboxylic acid]	> 380 °C (dec.)	10 to 50
Cc1c(C(=O)O)oc2ccc(S(=O)(=O)N(CCc3ccccc3)c3ccc(N4CCN(Cc5ccccc5)CC4)cc3)cc12 [Example F27-S70, 3-methyl-5-(N-(4-(4-benzylpiperazin-1-yl)phenyl)-N-phenethylsulfamoyl)benzofuran-2-carboxylic acid]	> 380 °C (dec.)	10 to 50
Cc1c(C(=O)O)oc2ccc(S(=O)(=O)N(CCc3ccccc3)Cc3ccccc3N3CCN(Cc4ccccc4)CC3)cc12 [Example F27-S104, 3-methyl-5-(N-(2-(4-benzylpiperazin-1-yl)benzyl)-N-phenethylsulfamoyl)benzofuran-2-carboxylic acid]	154 to 155 °C	50 to 100
Cc1c(C(=O)O)oc2ccc(S(=O)(=O)N(CCc3ccccc3)Cc3ccc(OC(F)(F)F)cc3)cc12 [Example F27-S34, 3-methyl-5-(N-(4-(trifluoromethoxy)benzyl)-N-phenethylsulfamoyl)benzofuran-2-carboxylic acid]	216 to 217 °C	10 to 50
Cc1c(C(=O)O)oc2ccc(S(=O)(=O)N(CCc3ccccc3)Cc3ccccc3N3CCNCC3)cc12 [Example F27-S97, 3-methyl-5-(N-(2-(piperazin-1-yl)benzyl)-N-phenethylsulfamoyl)benzofuran-2-carboxylic acid]	223 to 224 °C	50 to 100
Cc1c(C(=O)O)oc2ccc(S(=O)(=O)N(CCc3ccccc3)c3ccc(N4CCN(C(=O)OC(C)(C)C)CC4)c(C(F)(F)F)c3)cc12 [Example F27-S74, 3-methyl-5-(N-(4-(4-(tert-butoxycarbonyl)piperazin-1-yl)-3-(trifluoromethyl)phenyl)-N-phenethylsulfamoyl)benzofuran-2-carboxylic acid]	215 to 216 °C	0.1 to 10
Cc1c(C(=O)O)oc2ccc(S(=O)(=O)N(CCc3ccccc3)c3ccc(N4CCN(C(=O)c5ccccc5)CC4)cc3)cc12 [Example F27-S69, 3-methyl-5-(N-(4-(4-benzoylpiperazin-1-yl)phenyl)-N-phenethylsulfamoyl)benzofuran-2-carboxylic acid]	> 380 °C (dec.)	10 to 50
Cc1c(C(=O)O)oc2ccc(S(=O)(=O)N(CCc3ccccc3)Cc3cccc(Oc4ccccc4)c3)cc12 [Example F27-S27, 3-methyl-5-(N-(3-phenoxybenzyl)-N-phenethylsulfamoyl)benzofuran-2-carboxylic acid]	> 183 °C	10 to 50
CCCOC(=O)N1CCN(c2ccc(N(CCc3ccccc3)S(=O)(=O)c3ccc4oc(C(=O)O)c(C)c4c3)cc2)CC1 [Example F27-S67, 3-methyl-5-(N-(4-(4-(propoxycarbonyl)piperazin-1-yl)phenyl)-N-phenethylsulfamoyl)benzofuran-2-carboxylic acid]	> 380 °C (dec.)	10 to 50
Cc1c(C(=O)O)oc2ccc(S(=O)(=O)N(CCc3ccccc3)Cc3ccccc3N3CCN(S(C)(=O)=O)CC3)cc12 [Example F27-S102, 3-methyl-5-(N-(2-(4-(methylsulfonyl)piperazin-1-yl)benzyl)-N-phenethylsulfamoyl)benzofuran-2-carboxylic acid]	150 to 151 °C	50 to 100
Cc1ccc(F)cc1CN(CCc1ccccc1)S(=O)(=O)c1ccc2oc(C(=O)O)c(C)c2c1 [Example F27-S61, 3-methyl-5-(N-(2-methyl-5-fluorobenzyl)-N-phenethylsulfamoyl)benzofuran-2-carboxylic acid]	> 380 °C (dec.)	10 to 50
Cc1c(C(=O)O)oc2ccc(S(=O)(=O)N(CCc3ccccc3)Cc3cccc(Br)c3)cc12 [Example F27-S22, 3-methyl-5-(N-(3-bromobenzyl)-N-phenethylsulfamoyl)benzofuran-2-carboxylic acid]	> 380 °C (dec.)	10 to 50
Cc1c(C(=O)O)oc2ccc(S(=O)(=O)N(CCc3ccccc3)Cc3ccccc3N3CC[N+](C)(C)CC3)cc12 [Example F27-S99, 4-(2-(((2-carboxy-3-methyl-N-phenethylbenzofuran)-5-sulfonamido)methyl)phenyl)-1,1-dimethylpiperazin-1-ium]	143 to 144 °C	50 to 100
Cc1c(C(=O)O)oc2ccc(S(=O)(=O)N(CCc3ccccc3)Cc3ccc(-c4ccccc4C(=O)OC(C)(C)C)cc3)cc12 [Example F27-S84, 3-methyl-5-(N-((2′-(tert-butoxycarbonyl)-[1,1′-biphenyl]-4-yl)methyl)-N-phenethylsulfamoyl)benzofuran-2-carboxylic acid]	197 to 198 °C	10 to 50
Cc1c(C(=O)O)oc2ccc(S(=O)(=O)N(CCc3ccccc3)Cc3cccc(C(F)(F)F)c3)cc12 [Example F27-S24, 3-methyl-5-(N-(3-trifluoromethylbenzyl)-N-phenethylsulfamoyl)benzofuran-2-carboxylic acid]	188 to 189 °C	50 to 100
Cc1c(C(=O)O)oc2ccc(S(=O)(=O)N(CCc3ccccc3)c3ccccc3N3CCN(S(C)(=O)=O)CC3)cc12 [Example F27-S93, 3-methyl-5-(N-(2-(4-(methylsulfonyl)piperazin-1-yl)phenyl)-N-phenethylsulfamoyl)benzofuran-2-carboxylic acid]	144 to 145 °C	10 to 50
Cc1c(C(=O)O)oc2ccc(S(=O)(=O)N(CCc3ccccc3)Cc3ccc(-c4ccccc4)cc3)cc12 [Example F27-S82, 3-methyl-5-(N-([1,1′-biphenyl]-4-ylmethyl)-N-phenethylsulfamoyl)benzofuran-2-carboxylic acid]	> 380 °C (dec.)	50 to 100
Cc1c(C(=O)O)oc2ccc(S(=O)(=O)N(CCc3ccccc3)c3ccc(N4CCN(C)CC4)cc3)cc12 [Example F27-S64, 3-methyl-5-(N-(4-(4-methylpiperazin-1-yl)phenyl)-N-phenethylsulfamoyl)benzofuran-2-carboxylic acid]	152 to 153 °C	50 to 100
